Source: patent publication US9914735B2, “Heteroaryl Syk inhibitors” (Boehringer Ingelheim International GmbH, priority 2014, dated 2018)
pIC50: −log10 of the molar value. Read-outs that look alike come from different tables or passages of the source.

Experiments:
[1] = molecular target: Recombinant human Aurora B (amino acids 1-344) (Homo sapiens (Human), UniProt Q96GD4); test: Aurora B kinase test (ADP Glo luminescence); assay type: biochemical
Experimental: The activity of the Aurora B kinase protein was determined using the ADP Glo® Luminescence Kinase test (Promega; V9103X).
Serial Dilution is done in 1:10 steps in 100% DMSO.
Then 20 μl Kinase detection mix (Detection Buffer #V913B Promega; Kinase Detection Substrate #V914B Promega) were added and incubated for 40 minutes at room temperature.
(§1) The output file of the reader is a csv file that contains the well number and measured RLU. For data evaluation and calculation, the measurement of the negative control was set as 0% ctrl and the measurement of the positive control was set as 100% ctrl. Based on this values the % value for the measurement of each substance concentration was calculated using an Assay Explorer software (Accelrys). Normally, the % ctrl values calculated are between 0% and 100% values but may also occur outside these limits in individual cases based on variability or compound characteristics. The IC50 values were calculated from the % ctrl values using Assay Explorer software. Calculation: [y=(a−d)/(1+(x/c)^b)+d], a=low value, d=high value; x=conc M; c=IC50 M; b=hill; y=% ctrl.

FLT3 = FLT3 (Homo sapiens (Human), UniProt P36888); test: FLT3 kinase test (Z'-LYTE); assay type: biochemical; conditions: for pIC50: Table 1, read-out: FLT3-inhibition IC50-value
Chain of FLT3 (P36888 27-993): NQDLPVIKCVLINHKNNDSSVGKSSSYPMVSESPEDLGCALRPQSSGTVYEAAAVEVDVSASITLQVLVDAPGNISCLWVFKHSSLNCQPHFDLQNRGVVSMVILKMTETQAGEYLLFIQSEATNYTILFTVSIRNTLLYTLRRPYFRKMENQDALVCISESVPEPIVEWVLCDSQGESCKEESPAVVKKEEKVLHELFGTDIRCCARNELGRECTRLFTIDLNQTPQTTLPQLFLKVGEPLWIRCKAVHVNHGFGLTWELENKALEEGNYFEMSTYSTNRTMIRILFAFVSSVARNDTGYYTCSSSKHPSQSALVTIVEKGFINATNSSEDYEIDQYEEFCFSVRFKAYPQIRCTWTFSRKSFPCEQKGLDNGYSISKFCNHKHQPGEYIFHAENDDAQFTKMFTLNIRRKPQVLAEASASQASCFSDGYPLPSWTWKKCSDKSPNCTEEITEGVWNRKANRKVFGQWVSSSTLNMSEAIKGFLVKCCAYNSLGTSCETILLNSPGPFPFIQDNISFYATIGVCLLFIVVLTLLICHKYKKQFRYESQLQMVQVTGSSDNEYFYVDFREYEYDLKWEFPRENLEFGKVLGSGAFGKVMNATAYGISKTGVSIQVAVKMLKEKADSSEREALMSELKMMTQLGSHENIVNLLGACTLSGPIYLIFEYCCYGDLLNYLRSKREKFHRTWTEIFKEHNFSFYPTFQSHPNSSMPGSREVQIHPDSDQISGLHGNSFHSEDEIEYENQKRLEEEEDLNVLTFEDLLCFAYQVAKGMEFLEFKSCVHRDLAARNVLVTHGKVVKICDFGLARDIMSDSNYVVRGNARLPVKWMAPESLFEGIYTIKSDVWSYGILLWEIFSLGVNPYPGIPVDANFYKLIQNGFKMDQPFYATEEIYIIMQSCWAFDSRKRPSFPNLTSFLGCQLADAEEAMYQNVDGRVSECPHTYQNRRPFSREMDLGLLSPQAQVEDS
Experimental: The activity of FLT3 is measured using the Z′-LYTETM assay technology from Invitrogen (#PV3191)
The reaction is started by addition of 2.5 μl of the 4×ATP solution.
Positive controls are reaction mixtures containing no test compound; negative controls (blanks) are reaction mixtures containing no kinase. As a further control, the phosphopeptide solution is added to wells without kinase (=100% phosphorylation control).
The reaction is performed for 1 h at room temperature before 5 μl of the development solution is added. After a further incubation for 1 h at room temperature 5 μl of the stop reagent is added.
The output text file is evaluated in an “MS-Excel—VB-Makro” and “GraphPadPrism” (Version 5) (GraphPad Software Inc.) is used to calculate the results. Data for the inhibition of FLT3 are reported in M. data for the inhibition of the protease are reported in % CTL.

[2] = Human liver microsomal stability test; assay type: in vitro ADME; conditions: for microsomal stability Cl [% Qh]: human liver microsomes, Qh = liver blood flow
Experimental: The metabolic degradation for a specific SYK-inhibitor is performed at 37° C. with pooled human liver microsomes (human liver microsomes are commercially available as “BD UltraPool™” by Corning Life Sciences, Fogostraat 12, 1060 LJ Amsterdam, The Netherlands). The final incubation volume of 100 μl per time point contains TRIS buffer pH 7.6 at RT (0.1 M), magnesium chloride (5 mM), microsomal protein (1 mg/ml) and the test compound at a final concentration of 1 μM.
Following a short preincubation period at 37° C., the reaction is initiated by addition of beta-nicotinamide adenine dinucleotide phosphate in its reduced form (NADPH, 1 mM) and terminated by transfering an aliquot into solvent after different time points. Additionally, the NADPH-independent degradation is monitored in incubations without NADPH, terminated at the last time point.
The quenched (terminated) incubations are then pelleted by centrifugation (10000 g, 5 min).
An aliquot of the supernatant is assayed by LC-MS/MS for the remaining amount of parent compound. The half-life (t1/2 INVITRO) is determined by the slope of the semilogarithmic plot of the concentration-time profile.
The intrinsic clearance (CL_[…]) is calculated by considering the amount of protein in the incubation: CL_[…][μl/min/mg protein]=(Ln 2/(t1/2 INVITRO[min]*protein content[mg/ml]))*1000
The protein content [mg/ml] was determined with the “Bicinchoninic Acid Kit” of Sigma Aldrich (commercially available).
The upscaled intrinsic Clearance (CL_UP_INT) is calculated by considering the liver weight [g liver/kg body weight] and the microsomal recovery [mg protein/g liver]: CL_UP_INT[ml/min/kg]=0.001*CL_[…]*liver weight*microsomal recovery • with microsomal recovery=45 mg protein/g liver • with liver weight=25.7 g liver/kg body weight
The percent hepatic blood flow (% Qh) is finally calculated by considering the human liver blood flow Q [ml/min/kg]: % Qh[%]=((Q*CL_UP_INT)/(Q+CL_UP_INT)/Q)*100 • with liver blood flow (Q)=20.7 ml/min/kg.

[3] = molecular target: Recombinant human Syk (amino acids 342-635), GST-Syk kinase fusion protein (Homo sapiens (Human), UniProt P43405); test: Syk kinase test (Kinase Glo luminescence); assay type: biochemical; conditions: Table 1; read-out: SYK-inhibition IC50-value
Experimental: as §1, with “measured relative light units (RLU).” for “measured RLU.”, “as 100%” for “as 0%”, “as 0%” for “as 100%”, “software. Calculation:[y=(a−d)/(1+(x/c)^b)+d]” for “software. Calculation: [y=(a−d)/(1+(x/c)^b)+d],”

[4] = Table 1, read-out: AURB-inhibition IC50-value
[5] = read-out: IC50-values with regard to AURB

Chain of Recombinant human Aurora B (amino acids 1-344) (Q96GD4 whole entry, the tested form may be a part): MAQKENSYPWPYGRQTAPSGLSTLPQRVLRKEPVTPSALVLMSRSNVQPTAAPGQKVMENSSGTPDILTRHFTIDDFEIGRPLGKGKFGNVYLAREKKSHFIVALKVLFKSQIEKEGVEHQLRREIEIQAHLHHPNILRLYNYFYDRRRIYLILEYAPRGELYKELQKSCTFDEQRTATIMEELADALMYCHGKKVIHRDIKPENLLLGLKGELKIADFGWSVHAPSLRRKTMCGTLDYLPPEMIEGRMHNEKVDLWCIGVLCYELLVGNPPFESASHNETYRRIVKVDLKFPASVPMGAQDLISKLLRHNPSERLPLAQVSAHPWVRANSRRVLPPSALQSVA

pIC50 [3]	pIC50 [1, 4]	pIC50 (FLT3)	SMILES	also measured
			C[C@@H](Oc1cc(-c2ccc(CN3CCOCC3)cc2)cc2ncccc12)[C@H]1CNC(=O)C1 [43 of WO 2013/014060]	IC50 ([1]; read-out: IC50 in μM (AURB-Inhibition)): 0.144 µM; IC50 (FLT3; read-out: IC50 in μM (FLT3-Inhibition)): 0.157 µM; microsomal stability Cl [% Qh] [2]: <23 % Qh
			C[C@@H](Oc1nc(-c2ccc(N3CCOCC3)nc2)cc2ncccc12)[C@H]1CNC(=O)C1 [45 of WO 2011/092128]	microsomal stability Cl [% Qh] [2]: 53 % Qh
			Cc1c(-c2cc(O[C@H](C)[C@H]3CNC(=O)C3)c3cccnc3c2)cnn1C [112 of WO 2013/014060]	microsomal stability Cl [% Qh] [2]: <23 % Qh
			CCCn1cc(-c2cc(O[C@H](C)[C@H]3CNC(=O)C3)c3cccnc3c2)cn1 [114 of WO 2013/014060]	microsomal stability Cl [% Qh] [2]: 26 % Qh
			CC(C)n1cc(-c2cc(O[C@H](C)[C@H]3CNC(=O)C3)c3cccnc3c2)cn1 [115 of WO 2013/014060]	microsomal stability Cl [% Qh] [2]: <23 % Qh
7.44	< 4.30	4.77	CCn1cc(-c2cc3nn(C)cc3c(O[C@H](C)[C@H]3CNC(=O)C3)n2)cn1 [Example 58, (4R)-4-[(1R)-1-[6-(1-ethylpyrazol-4-yl)-2-methyl-pyrazolo[4,3-c]pyridin-4-yl]oxyethyl]pyrrolidin-2-one]	
6.84	4.46	5.01	C[C@@H](Oc1nc(-c2ccc(C(F)(F)F)cc2)cc2nn(C)cc12)[C@H]1CNC(=O)C1 [Example 60, (4R)-4-[(1R)-1-[2-methyl-6-[4-(trifluoromethyl)phenyl]-pyrazolo[4,3-c]pyridin-4-yl]-oxyethyl]pyrrolidin-2-one]	
7.33	< 4.30	4.88	C[C@@H](Oc1nc(-c2cnn(C)c2)cc2nn(C)cc12)[C@H]1CNC(=O)C1 [Example 63, (4R)-4-[(1R)-1-[2-methyl-6-(1-methylpyrazol-4-yl)pyrazolo[4,3-c]pyridin-4-yl]oxyethyl]pyrrolidin-2-one]	
7.59	< 4.30	4.67	C[C@@H](Oc1nc(-c2cnn(C3CCOCC3)c2)cc2nn(C)cc12)[C@H]1CNC(=O)C1 [Example 64, (4R)-4-[(1R)-1-[2-methyl-6-(1-tetrahydropyran-4-yl-pyrazol-4-yl)pyrazolo[4,3-c]pyridin-4-yl]oxyethyl]-pyrrolidin-2-one]	
7.68	< 4.30	4.83	CC(C)n1cc(-c2cc3nn(C)cc3c(O[C@H](C)[C@H]3CNC(=O)C3)n2)cn1 [Example 65, (4R)-4-[(1R)-1-[6-(1-iso-propylpyrazol-4-yl)-2-methyl-pyrazolo[4,3-c]pyridin-4-yl]-oxyethyl]pyrrolidin-2-one]	
7.41	< 4.30	5.35	C[C@@H](Oc1nc(-c2ccc(N3CCOCC3)nc2)cc2nn(C)cc12)[C@H]1CNC(=O)C1 [Example 66, (4R)-4-[(1R)-1-[2-methyl-6-(6-morpholino-3-pyridyl)-pyrazolo[4,3-c]pyridin-4-yl]oxyethyl]pyrrolidin-2-one]	
7.19	< 4.30	4.65	Cc1nn(C)cc1-c1cc2nn(C)cc2c(O[C@H](C)[C@H]2CNC(=O)C2)n1 [Example 68, (4R)-4-[(1R)-1-[6-(1,3-dimethylpyrazol-4-yl)-2-methyl-pyrazolo[4,3-c]pyridin-4-yl]oxyethyl]pyrrolidin-2-one]	
6.70	< 4.30	4.35	Cc1c(-c2cc3nn(C)cc3c(O[C@H](C)[C@H]3CNC(=O)C3)n2)cnn1C [Example 69, (4R)-4-[(1R)-1-[6-(1,5-dimethylpyrazol-4-yl)-2-methyl-pyrazolo[4,3-c]pyridin-4-yl]oxyethyl]pyrrolidin-2-one]	
7.46	< 4.30	4.77	C[C@@H](Oc1nc(-c2cnn([C@H]3CCOC3)c2)cc2nn(C)cc12)[C@H]1CNC(=O)C1 [Example 70, (4R)-4-[(1R)-1-[2-methyl-6-[1-[(3S)-tetrahydrofuran-3-yl]pyrazol-4-yl]pyrazolo[4,3-c]pyridin-4-yl]oxyethyl]-pyrrolidin-2-one]	
7.82	< 4.30	5.12	Cc1cc(-c2cc3nn(C)cc3c(O[C@H](C)[C@H]3CNC(=O)C3)n2)ccc1N1CCCS1(=O)=O [Example 71, (4R)-4-[(1R)-1-[6-[4-(1,1-dioxo-1,2-thiazolidin-2-yl)-3-methyl-phenyl]-2-methyl-pyrazolo[4,3-c]pyridin-4-yl]oxyethyl]pyrrolidin-2-one]	
7.00	5.07	5.80	C[C@@H](Oc1nc(-c2ccc3c(c2)CN(C)CC3)cc2nn(C)cc12)[C@H]1CNC(=O)C1 [Example 75, (4R)-4-[(1R)-1-[2-methyl-6-(2-methyl-3,4-dihydro-1H-isoquinolin-7-yl)pyrazolo[4,3-c]pyridin-4-yl]oxyethyl]-pyrrolidin-2-one]	
7.23	4.34	4.83	C[C@@H](Oc1nc(-c2cnn(CCC(F)(F)F)c2)cc2nn(C)cc12)[C@H]1CNC(=O)C1 [Example 76, (4R)-4-[(1R)-1-[2-methyl-6-[1-(3,3,3-trifluoropropyl)-pyrazol-4-yl]pyrazolo[4,3-c]pyridin-4-yl]oxyethyl]-pyrrolidin-2-one]	
7.30	4.36	5.43	C[C@@H](Oc1nc(-c2cc3cccc(Cl)c3[nH]2)cc2nn(C)cc12)[C@H]1CNC(=O)C1 [Example 77, (4R)-4-[(1R)-1-[6-(7-chloro-1H-indol-2-yl)-2-methyl-pyrazolo[4,3-c]pyridin-4-yl]oxyethyl]pyrrolidin-2-on]	
7.44	< 4.30	4.66	C[C@@H](Oc1nc(-c2cnn(C3CC3)c2)cc2nn(C)cc12)[C@H]1CNC(=O)C1 [Example 78, (4R)-4-[(1R)-1-[6-(1-cyclopropylpyrazol-4-yl)-2-methyl-pyrazolo[4,3-c]pyridin-4-yl]oxyethyl]pyrrolidin-2-one]	
			COc1cc(-c2cc(O[C@H](C)[C@H]3CNC(=O)C3)c3cccnc3c2)cc(OC)c1OC [example 2 of WO2013/014060, reference compound]	pIC50 [1, 5]: 4.77; human liver microsomal stability CI [2]: 81 % Qh
			COc1cc(-c2cc3ncccc3c(O[C@H](C)[C@H]3CNC(=O)C3)n2)cc(OC)c1Cl [example 8 of WO 2011/092128, reference compound]	pIC50 [1, 5]: < 4.30; human liver microsomal stability CI [2]: 77 % Qh
